According to ChEMBL document CHEMBL3616398, “Recent advances on the synthesis of hepatitis C virus NS5B RNA-dependent RNA-polymerase inhibitors” (Eur J Med Chem, 2015):

Columns and labels:
[1] = tested on: Hepatitis C virus; experiment: Antiviral activity against HCV genotype 1b replicon system; format: functional, organism-based, Hepacivirus hominis
[2] = tested on: Hepatitis C virus; experiment: Antiviral activity against HCV genotype 1b infected in human Ava.5 cells after 3 days assessed as protection from virus-induced cytotoxicity by MTT assay; format: functional, organism-based, Hepacivirus hominis; conditions: Ava5, 72 h
[3] = Inhibition of HCV genotype 1b NS5B RNA dependent RNA polymerase assessed as inorganic pyrophosphate generation by luminometry; parameters: species or system Hepatitis C virus subtype 1b

Row | Compound | IC50 [1] [µM] | EC50 [2] [µM] | IC50 [3] [µM]
1 | Cc1nc2c(s1)CCCn1c-2c(C2CCCCC2)c2ccc(C(=O)O)cc21 | 8.3 | – | –
2 | O=C(NCCCc1ccccc1)c1nc2ccccc2c(=O)n1O | – | 17.5 | 8.77
